12 compounds from ChEMBL document CHEMBL6134854, “Development of Hydrazide-Based HDAC6 Selective Inhibitors for Treating NLRP3 Inflammasome-Related Diseases” (J Med Chem, 2025) can be followed below.

The term IC50 denotes the concentration at which inhibition is half-maximal. Broadly, the Vd is the apparent volume that relates the amount in the body to the concentration in plasma or blood. A lower Vd goes with confinement near the circulation. Usually clearance stands for a measure of how efficiently the substance is removed, as volume per time. Read a low clearance as a low capacity for elimination.

Series [1] has as its target Histone deacetylase 3 (Homo sapiens, UniProt O15379). As to the kind of experiment: Inhibition of recombinant HDAC3 (unknown origin) using Boc-Lys (acetyl)-AMC as substrate preincubated for 1 hrs followed by substrate addition and measured after 2 hrs by fluorescence based microplate reader analysis.
The target in series [2] is Histone deacetylase 2 (Homo sapiens, UniProt Q92769). As to the kind of experiment: Inhibition of recombinant HDAC2 (unknown origin) using Boc-Lys (acetyl)-AMC as substrate preincubated for 1 hrs followed by substrate addition and measured after 2 hrs by fluorescence based microplate reader analysis.
Sequence of Histone deacetylase 2 (Q92769 whole entry): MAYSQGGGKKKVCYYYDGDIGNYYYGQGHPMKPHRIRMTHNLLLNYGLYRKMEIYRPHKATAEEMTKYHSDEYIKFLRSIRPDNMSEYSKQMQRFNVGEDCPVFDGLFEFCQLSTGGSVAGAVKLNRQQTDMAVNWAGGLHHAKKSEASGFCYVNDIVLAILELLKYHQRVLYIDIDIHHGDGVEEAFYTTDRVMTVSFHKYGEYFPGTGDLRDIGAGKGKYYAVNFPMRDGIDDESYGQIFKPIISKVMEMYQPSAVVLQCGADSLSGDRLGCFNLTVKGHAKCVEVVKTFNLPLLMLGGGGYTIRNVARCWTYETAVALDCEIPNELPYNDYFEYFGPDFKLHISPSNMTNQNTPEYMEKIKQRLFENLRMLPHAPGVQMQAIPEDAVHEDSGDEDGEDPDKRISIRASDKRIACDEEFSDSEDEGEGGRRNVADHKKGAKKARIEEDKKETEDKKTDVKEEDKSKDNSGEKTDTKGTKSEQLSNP
In series [3] the target is Histone deacetylase 1 (Homo sapiens, UniProt Q13547). Briefly: Inhibition of recombinant HDAC1 (unknown origin) using Boc-Lys (acetyl)-AMC as substrate preincubated for 1 hrs followed by substrate addition and measured after 2 hrs by fluorescence based microplate reader analysis.
Sequence of Histone deacetylase 1 (Q13547 whole entry): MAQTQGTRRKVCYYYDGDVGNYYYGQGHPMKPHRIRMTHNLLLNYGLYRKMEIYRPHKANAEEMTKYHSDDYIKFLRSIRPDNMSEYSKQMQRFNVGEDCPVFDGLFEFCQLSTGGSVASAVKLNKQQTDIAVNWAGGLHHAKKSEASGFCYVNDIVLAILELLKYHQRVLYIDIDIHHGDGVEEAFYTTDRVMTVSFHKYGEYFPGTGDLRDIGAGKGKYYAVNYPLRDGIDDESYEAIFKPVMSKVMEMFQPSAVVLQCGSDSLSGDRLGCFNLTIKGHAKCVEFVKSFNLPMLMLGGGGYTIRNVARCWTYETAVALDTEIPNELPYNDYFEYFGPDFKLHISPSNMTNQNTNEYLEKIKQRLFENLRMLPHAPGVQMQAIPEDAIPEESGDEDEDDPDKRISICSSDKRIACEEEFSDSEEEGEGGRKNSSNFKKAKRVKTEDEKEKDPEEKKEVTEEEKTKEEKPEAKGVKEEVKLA
The target in series [4] is T1, Histone deacetylase 7 (Homo sapiens, UniProt Q8WUI4).
T1 sequence (Q8WUI4 whole entry): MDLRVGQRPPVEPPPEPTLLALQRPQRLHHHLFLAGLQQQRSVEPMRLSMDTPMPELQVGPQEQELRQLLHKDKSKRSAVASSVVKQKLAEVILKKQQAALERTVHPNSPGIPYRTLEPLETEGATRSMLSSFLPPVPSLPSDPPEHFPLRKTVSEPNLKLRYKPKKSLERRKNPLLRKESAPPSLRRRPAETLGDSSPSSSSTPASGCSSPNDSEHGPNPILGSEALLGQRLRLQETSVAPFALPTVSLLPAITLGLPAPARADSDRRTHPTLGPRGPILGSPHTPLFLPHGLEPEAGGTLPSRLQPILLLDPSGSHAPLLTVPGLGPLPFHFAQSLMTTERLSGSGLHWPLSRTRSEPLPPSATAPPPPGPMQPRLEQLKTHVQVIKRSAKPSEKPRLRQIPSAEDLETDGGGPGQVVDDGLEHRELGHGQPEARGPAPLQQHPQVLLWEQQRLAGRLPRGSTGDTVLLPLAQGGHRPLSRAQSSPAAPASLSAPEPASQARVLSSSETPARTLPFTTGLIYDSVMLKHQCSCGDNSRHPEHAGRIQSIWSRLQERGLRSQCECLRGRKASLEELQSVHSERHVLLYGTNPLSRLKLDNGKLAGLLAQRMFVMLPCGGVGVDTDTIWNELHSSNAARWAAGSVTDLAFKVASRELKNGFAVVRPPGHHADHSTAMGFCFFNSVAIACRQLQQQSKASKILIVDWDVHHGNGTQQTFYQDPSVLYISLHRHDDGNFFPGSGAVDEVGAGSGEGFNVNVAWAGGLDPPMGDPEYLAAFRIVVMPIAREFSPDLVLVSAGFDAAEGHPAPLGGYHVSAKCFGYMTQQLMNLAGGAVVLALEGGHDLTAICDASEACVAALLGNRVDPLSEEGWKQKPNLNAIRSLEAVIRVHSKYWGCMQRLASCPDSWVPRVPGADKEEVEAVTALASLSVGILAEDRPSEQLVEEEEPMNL
Briefly: Inhibition of recombinant HDAC7 (unknown origin) using Boc-Lys (trifluoroacetyl)AMC as substrate preincubated for 1 hrs followed by substrate addition and measured after 2 hrs by fluorescence based microplate reader analysis.

The target in series [5] is Histone deacetylase 9 (Homo sapiens, UniProt Q9UKV0). Briefly: Inhibition of recombinant HDAC9 (unknown origin) using Boc-Lys (trifluoroacetyl)AMC as substrate preincubated for 1 hrs followed by substrate addition and measured after 2 hrs by fluorescence based microplate reader analysis.
Sequence of Histone deacetylase 9 (Q9UKV0 whole entry): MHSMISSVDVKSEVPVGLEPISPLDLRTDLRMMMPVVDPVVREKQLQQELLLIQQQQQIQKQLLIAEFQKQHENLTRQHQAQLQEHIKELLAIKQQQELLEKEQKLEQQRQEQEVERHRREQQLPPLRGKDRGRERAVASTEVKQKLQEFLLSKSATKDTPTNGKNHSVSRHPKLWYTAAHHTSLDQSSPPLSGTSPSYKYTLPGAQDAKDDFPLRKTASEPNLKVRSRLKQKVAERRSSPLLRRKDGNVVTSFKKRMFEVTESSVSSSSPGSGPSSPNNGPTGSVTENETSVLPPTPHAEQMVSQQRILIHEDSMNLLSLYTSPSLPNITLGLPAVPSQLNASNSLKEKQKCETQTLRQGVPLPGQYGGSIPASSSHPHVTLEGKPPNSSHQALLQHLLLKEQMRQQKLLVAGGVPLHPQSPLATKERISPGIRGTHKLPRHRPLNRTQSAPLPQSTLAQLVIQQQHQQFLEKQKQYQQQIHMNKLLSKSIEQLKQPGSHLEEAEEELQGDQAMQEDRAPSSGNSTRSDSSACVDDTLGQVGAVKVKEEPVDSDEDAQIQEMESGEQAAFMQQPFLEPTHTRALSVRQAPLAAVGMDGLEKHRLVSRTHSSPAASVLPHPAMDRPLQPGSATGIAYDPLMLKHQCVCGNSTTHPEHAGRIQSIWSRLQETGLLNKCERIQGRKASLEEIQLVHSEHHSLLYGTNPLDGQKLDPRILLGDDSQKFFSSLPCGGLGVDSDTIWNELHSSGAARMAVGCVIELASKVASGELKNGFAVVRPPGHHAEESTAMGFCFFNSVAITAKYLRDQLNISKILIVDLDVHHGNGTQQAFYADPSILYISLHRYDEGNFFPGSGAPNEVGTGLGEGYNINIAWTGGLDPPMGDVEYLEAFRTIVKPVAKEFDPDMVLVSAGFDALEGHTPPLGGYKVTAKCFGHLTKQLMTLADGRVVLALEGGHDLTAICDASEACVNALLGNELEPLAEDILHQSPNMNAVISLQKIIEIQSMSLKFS
Series [6] addresses T2, Histone deacetylase 8 (Homo sapiens, UniProt Q9BY41).
T2 sequence (Q9BY41 whole entry): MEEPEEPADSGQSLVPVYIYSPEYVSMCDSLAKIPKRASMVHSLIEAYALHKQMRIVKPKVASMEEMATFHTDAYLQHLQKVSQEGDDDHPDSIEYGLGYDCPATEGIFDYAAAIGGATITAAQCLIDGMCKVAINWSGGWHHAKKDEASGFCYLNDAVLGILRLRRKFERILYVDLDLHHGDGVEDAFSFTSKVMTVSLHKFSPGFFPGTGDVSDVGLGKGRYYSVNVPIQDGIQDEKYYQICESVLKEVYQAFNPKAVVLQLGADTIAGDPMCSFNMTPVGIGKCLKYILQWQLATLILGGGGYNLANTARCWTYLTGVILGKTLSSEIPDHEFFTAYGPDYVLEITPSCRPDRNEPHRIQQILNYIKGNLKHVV
As to the kind of experiment: Inhibition of recombinant HDAC8 (unknown origin) using Boc-Lys (trifluoroacetyl)AMC as substrate preincubated for 1 hrs followed by substrate addition and measured after 2 hrs by fluorescence based microplate reader analysis.

The target in series [7] is T3, Polyamine deacetylase HDAC10 (Homo sapiens, UniProt Q969S8).
T3 sequence (Q969S8 whole entry): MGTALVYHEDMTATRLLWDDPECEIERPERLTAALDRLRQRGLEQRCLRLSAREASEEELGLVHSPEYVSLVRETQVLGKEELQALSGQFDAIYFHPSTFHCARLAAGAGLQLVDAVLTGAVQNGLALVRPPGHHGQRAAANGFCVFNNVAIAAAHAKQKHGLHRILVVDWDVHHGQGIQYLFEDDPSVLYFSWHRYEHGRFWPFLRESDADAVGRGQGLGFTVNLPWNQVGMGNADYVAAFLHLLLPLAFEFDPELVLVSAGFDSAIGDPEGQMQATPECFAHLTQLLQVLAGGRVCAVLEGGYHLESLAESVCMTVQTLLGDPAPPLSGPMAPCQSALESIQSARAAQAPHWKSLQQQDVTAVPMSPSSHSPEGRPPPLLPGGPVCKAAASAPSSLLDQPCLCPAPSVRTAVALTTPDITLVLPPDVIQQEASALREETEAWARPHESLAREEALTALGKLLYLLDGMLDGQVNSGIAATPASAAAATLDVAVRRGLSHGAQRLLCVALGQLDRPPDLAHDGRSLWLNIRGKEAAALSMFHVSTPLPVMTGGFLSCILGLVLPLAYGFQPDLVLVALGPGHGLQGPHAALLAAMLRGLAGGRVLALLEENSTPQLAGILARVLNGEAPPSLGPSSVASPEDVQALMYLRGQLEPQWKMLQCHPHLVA
As to the kind of experiment: Inhibition of recombinant HDAC10 (unknown origin) using Ac-Gly-Ala-Lys(AMC) as substrate preincubated for 1 hrs followed by substrate addition and measured after 2 hrs by fluorescence based microplate reader analysis.

Series [8] has as its target T4, Histone deacetylase 11 (Homo sapiens, UniProt Q96DB2).
T4 sequence (Q96DB2 whole entry): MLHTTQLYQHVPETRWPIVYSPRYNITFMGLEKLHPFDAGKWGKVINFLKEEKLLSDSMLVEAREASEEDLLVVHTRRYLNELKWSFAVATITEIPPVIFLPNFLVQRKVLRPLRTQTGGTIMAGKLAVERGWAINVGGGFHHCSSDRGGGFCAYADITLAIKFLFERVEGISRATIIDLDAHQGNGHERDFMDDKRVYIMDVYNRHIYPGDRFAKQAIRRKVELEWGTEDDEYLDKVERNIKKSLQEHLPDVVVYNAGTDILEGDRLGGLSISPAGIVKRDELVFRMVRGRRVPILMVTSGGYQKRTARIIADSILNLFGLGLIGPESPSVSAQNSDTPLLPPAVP
As to the kind of experiment: Inhibition of recombinant HDAC11 (unknown origin) using ETDKacyl-Kmyr as substrate preincubated for 1 hrs followed by substrate addition and measured after 2 hrs by fluorescence based microplate reader analysis.

For series [9], the target named is Histone deacetylase 5 (Homo sapiens, UniProt Q9UQL6). As to the kind of experiment: Inhibition of recombinant HDAC5 (unknown origin) using Boc-Lys (trifluoroacetyl)AMC as substrate preincubated for 1 hrs followed by substrate addition and measured after 2 hrs by fluorescence based microplate reader analysis.
Sequence of Histone deacetylase 5 (Q9UQL6 whole entry): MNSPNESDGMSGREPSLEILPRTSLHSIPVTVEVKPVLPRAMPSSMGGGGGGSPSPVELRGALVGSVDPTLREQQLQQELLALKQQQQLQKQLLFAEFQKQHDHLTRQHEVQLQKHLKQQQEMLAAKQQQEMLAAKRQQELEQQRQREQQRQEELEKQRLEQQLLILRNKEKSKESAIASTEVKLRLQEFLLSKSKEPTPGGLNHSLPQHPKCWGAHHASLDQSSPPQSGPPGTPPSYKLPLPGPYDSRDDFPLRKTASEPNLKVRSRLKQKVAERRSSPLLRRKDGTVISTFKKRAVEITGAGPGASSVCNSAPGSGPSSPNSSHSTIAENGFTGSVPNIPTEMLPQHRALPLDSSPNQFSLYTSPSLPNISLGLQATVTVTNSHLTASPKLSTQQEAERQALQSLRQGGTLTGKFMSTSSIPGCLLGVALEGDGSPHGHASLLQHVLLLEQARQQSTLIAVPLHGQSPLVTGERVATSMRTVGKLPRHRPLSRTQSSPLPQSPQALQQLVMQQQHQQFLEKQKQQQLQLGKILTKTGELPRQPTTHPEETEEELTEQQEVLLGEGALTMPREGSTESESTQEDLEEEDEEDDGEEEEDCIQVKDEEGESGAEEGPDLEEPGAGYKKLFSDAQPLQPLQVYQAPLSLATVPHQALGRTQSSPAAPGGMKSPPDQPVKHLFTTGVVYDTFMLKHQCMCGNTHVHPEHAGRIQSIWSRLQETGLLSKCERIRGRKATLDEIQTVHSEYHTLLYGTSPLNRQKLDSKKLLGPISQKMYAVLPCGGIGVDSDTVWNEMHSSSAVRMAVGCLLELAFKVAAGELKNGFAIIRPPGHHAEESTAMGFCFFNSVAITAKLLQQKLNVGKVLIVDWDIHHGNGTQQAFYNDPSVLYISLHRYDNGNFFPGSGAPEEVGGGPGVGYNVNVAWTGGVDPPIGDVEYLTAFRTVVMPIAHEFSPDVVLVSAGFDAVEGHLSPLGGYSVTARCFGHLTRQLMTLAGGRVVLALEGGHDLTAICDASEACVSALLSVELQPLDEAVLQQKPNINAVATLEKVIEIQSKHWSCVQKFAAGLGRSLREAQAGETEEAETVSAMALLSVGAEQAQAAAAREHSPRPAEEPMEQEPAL
Series [10] concerns the target Histone deacetylase 4 (Homo sapiens, UniProt P56524). Briefly: Inhibition of recombinant HDAC4 (unknown origin) using Boc-Lys (trifluoroacetyl)AMC as substrate preincubated for 1 hrs followed by substrate addition and measured after 2 hrs by fluorescence based microplate reader analysis.
Series [11] in a line: in vivo. The conditions noted are these: male, ICR, mouse, iv, 5 mg/kg.
Series [12] in a line: in vivo. The conditions noted are these: male, ICR, mouse, iv, 5 mg/kg. This is another data set of the same source.
In series [13] the test system is L02. As to the kind of experiment: Cytotoxicity against HL7702 cells assessed as effect on cell viability at 10 uM incubated for 48 hrs by resazurin reagent based assay. The conditions noted are these: human, l02, 48 h. The series is classed as toxicity.
The subject of series [14] is J774.A1. Briefly: cells. The conditions noted are these: Mus musculus, J774.A1, 48 h.
Series [15] concerns L02. Briefly: Cytotoxicity against HL7702 cells assessed as effect on cell viability incubated for 48 hrs by resazurin reagent based assay. The format is toxicity. The note with it: human, l02, 48 h. A general note: Alamar Blue is a resazurin reagent that responds to reducing activity.

Sequence of Histone deacetylase 3 (O15379 whole entry): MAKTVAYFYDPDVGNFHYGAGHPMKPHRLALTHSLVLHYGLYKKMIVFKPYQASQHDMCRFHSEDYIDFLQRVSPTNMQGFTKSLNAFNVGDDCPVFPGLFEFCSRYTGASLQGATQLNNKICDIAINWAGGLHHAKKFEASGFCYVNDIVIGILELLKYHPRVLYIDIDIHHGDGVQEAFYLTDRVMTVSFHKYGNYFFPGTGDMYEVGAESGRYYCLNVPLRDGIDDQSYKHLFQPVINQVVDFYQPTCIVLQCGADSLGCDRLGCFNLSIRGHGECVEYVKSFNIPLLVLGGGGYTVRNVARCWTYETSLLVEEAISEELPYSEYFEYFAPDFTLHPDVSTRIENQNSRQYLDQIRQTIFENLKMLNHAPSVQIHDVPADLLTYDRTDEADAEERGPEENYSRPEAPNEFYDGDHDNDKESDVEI
Sequence of Histone deacetylase 4 (P56524 whole entry): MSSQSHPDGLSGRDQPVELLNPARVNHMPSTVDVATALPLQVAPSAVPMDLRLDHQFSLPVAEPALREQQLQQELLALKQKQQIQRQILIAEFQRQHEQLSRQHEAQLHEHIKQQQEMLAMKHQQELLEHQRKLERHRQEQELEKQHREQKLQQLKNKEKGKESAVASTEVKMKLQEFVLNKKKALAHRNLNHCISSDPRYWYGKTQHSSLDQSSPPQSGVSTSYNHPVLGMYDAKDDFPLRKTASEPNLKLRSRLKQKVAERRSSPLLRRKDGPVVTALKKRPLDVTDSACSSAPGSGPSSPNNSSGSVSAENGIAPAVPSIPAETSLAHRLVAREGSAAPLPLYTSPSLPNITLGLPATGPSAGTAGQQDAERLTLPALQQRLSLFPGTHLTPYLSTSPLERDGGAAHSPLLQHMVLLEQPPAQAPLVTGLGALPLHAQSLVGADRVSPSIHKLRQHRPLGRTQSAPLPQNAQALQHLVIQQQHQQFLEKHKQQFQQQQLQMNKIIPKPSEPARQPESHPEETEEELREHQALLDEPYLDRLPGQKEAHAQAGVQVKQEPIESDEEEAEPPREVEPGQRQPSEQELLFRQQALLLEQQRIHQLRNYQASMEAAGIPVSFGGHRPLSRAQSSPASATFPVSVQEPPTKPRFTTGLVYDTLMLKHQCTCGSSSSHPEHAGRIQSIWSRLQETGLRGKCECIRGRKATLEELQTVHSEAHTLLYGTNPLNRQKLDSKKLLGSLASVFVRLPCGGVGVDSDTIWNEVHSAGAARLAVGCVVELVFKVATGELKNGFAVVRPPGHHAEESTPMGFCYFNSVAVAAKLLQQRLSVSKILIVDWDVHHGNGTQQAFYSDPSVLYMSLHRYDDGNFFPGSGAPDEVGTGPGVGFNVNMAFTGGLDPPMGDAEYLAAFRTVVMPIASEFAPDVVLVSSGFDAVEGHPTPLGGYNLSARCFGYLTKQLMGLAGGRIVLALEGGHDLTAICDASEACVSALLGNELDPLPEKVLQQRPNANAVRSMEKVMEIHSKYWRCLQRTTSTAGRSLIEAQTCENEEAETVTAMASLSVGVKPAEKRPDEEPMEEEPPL

With `CCNNC(=O)c1cc(F)c(Cn2c3ccccc3c3cccnc32)cc1F`, the IC50 in [1], in [2] and in [3] was greater than 10 µM throughout.
Regarding `CCNNC(=O)c1cc(F)c(CN2c3ccccc3Sc3cccnc32)cc1F`, the IC50 in [1], in series [2] and in series [3] was greater than 10 µM in each case.
Consider `CCNNC(=O)c1cc(F)c(Cn2c3ccccc3c3ccccc32)cc1F`, for which the IC50 in [1], in series [2] and in series [3] was greater than 10 µM throughout.
As for `CCNNC(=O)c1cc(F)c(CN2c3ccccc3C=Cc3ccccc32)cc1F`, the IC50 in [1], in series [2] and in series [3] was greater than 10 µM each time.
Consider `CCNNC(=O)c1cc(F)c(CNc2cccc3cccnc23)cc1F`, for which the IC50 in series [1], in series [2] and in series [3] was greater than 10 µM in each case.
Turning to `CCNNC(=O)c1cc(F)c(CN2c3ccccc3C=Cc3ccncc32)c(F)c1`, the IC50 in [1], in series [2] and in [3] was greater than 10 µM each time.
For the compound `O=C(NNCCF)c1ccc(CN2c3ccccc3C=Cc3ccncc32)cc1`, the figures for the IC50 in [1], in series [2] and in [3] were 6.37 µM, greater than 10 µM and greater than 10 µM, respectively.
As to `CCNNC(=O)c1ccc(CN2c3ccccc3C=Cc3ccncc32)c(F)c1`, the IC50 in [4] was greater than 10 µM; in series [1], 3.75 µM; in [5], 2.27 µM; in series [6] it was greater than 10 µM; in [7] it was greater than 10 µM; in series [8] it was greater than 10 µM. The half-inhibitory concentration (IC50) in [2] is greater than 10 µM; in series [3], 8.74 µM; in series [9] it was greater than 10 µM; in series [10] it was greater than 10 µM.
For `CCNNC(=O)c1cc(F)c(CN2c3ccccc3C=Cc3ccncc32)cc1F`, the IC50 in series [4] was greater than 10 µM; in [1] it was 7.04 µM; in [5], greater than 10 µM; in series [6], greater than 10 µM; in series [7], greater than 10 µM; in [8], greater than 10 µM. For the same compound, the IC50 in series [2], in [3], in [9] and in series [10] was greater than 10 µM each time.
Consider `CCNNC(=O)c1ccc(CN2c3ccccc3C=Cc3ccncc32)cc1`, for which the Vd at 24 h in [11] turned out to be 3.51 L/kg. In [12], this compound yielded a clearance at 24 h of 30.6 mL/min/kg. Besides, the IC50 in series [7] is greater than 10 µM; in [14], 25.6 µM. In addition, the Activity result in series [13] is on record as “Toxic”.
For `CCNNC(=O)c1ccc(CN2c3ccccc3C=Cc3ccncc32)cc1F`, the concentration for half-maximal inhibition (IC50) in series [1] is 1.79 µM; in series [2] it was greater than 10 µM; in series [3], greater than 10 µM.
On to `O=C(CCCCCCNC(=O)c1cnc(N(c2ccccc2)c2ccccc2)nc1)NO` [RICOLINOSTAT], for which the Activity entry in series [15] is “Toxic”.
